Reference: US20170003277A1 (priority 2015, published 2017)
Several values for one entry are separate records, joined by “and”; a condition that tells them apart may be missing. Identical values can stand only once. Like-named read-outs stand apart in the source and are kept apart here.

How the values were obtained:
[1] = assay type: in vivo, human
Source text: The Teva Patient Support Program in Mexico has an extensive database. Given that patients can switch between branded and purported generic GA, all patients are kept within the database and are provided with patient support services.
The number of relapses reported by patients in Teva's Patient Support Program on a monthly basis during the years 2012 and 2013 i. It is again clear that when Copaxone alone was in use (i.e. throughout 2012) the overall, as well as per-month number of relapses was lower than that reported when Probioglat was present in the market (i.e. throughout 2013).
These findings have identified significant differences that warrant further investigation, especially in light of the observed clinical effects of Probioglat's introduction. The Teva Patient Support Program in Mexico records numbers of adverse events, including during the years 2012 and 2013 (Table 31; FIG. 46), for which a similar number of patients were tracked (1618 patients in 2012; 1552 in 2013). Probioglat was first introduced in January 2013; subsequently, each time a patient's prescription was filled, it could be with either Probioglat or GA. […] The gene-expression differences observed herein warrant careful investigation, through studies comparing GA to candidate generics in meaningful settings, most comprehensively including clinical trials.

[2] = tested on: mouse splenocytes, THP-1 human monocyte cell line, PBMCs from MS patients; test: Integrated analysis of genes modulated by Copaxone across mouse splenocytes, THP-1 human monocytes and MS patient PBMCs; conditions: human monocytes
Source text: Genome-wide expression profiles in cells from three different datasets in two different species (human, mouse) were studied. LIMMA was utilized to identify a genome-wide list of differentially expressed genes induced by GA in the primed and ex vivo stimulated mouse splenocytes, as well as in the THP-1 human monocyte cell line. Repeated-measures ANOVA was utilized to find a genome-wide list of genes modulated by GA in treated MS patients. Advanced enrichment algorithms were then applied to elucidate the pathways and cell types modulated by GA.
The genes modulated by GA treatment in multiple studies were examined for enrichment in particular immunological cell types.

[3] = tested on: THP-1 human monocyte cell line; assay type: cell-based; conditions: for Number of genes significantly modulated by Copaxone relative to mannitol: FDR-adjusted p<0.05
Description: Prior to treatment cells were passed and plated in a 6-well plate at a concentration of 1.0×10^6 cells/mL. Cells were allowed to recover for four hours after passage (prior to treatment). […] Each sample was analyzed in six replicates. Cells were treated for 6, 12, and 24 hours. Following treatment time cells were lysed using a Qiagen® based lysis kit. Prior to RNA isolation samples were randomized in order to avoid batch effect. Total RNA was isolated using Qiagen® RNeasy kit. RNA quality was assessed by determining the absorbance ratio 260/280 nm as well as electrophoresis bioanalyzer with 260/280 ratio of 1.9-2.1 and RIN of above 9 were deemed acceptable. Gene expression was measured using Affymetrix® U133 plus 2.0 format. Sample processing was executed according to established manufacturer protocols. The scheme in (FIG. 2) illustrates the general experimental outline.
RNA from THP-1 cells was extracted and expression profiled across the entire genome using the Affymetrix Human Genome U133 Plus 2.0 chip, interrogating a total of over 47,000 transcripts. Four batches of Copaxone® and one batch of Probioglat were comparatively tested in six biological replicates each. Key identified genes were independently evaluated for level of gene expression by quantitative Real-Time PCR of samples collected in the same experiments.
mRNA expression levels were compared between GA and control (mannitol) tested with 6 sample replicates for each of 4 batches of GA and for mannitol, using LIMMA (Sim et al., Nat. Biotechnol. 2011) (Methods). […] We chose 6h for initial downstream analysis since this timepoint reflects the greatest impact of treatment. […] Rather, this decrease in number of genes affected from early to later timepoints represents an attribute of the response of the cells to the drug.
To identify differences between branded GA and differently manufactured glatiramoids, differential gene expression analysis was performed to compare directly between profiles induced by branded GA and by the purported generic glatiramoid, Probioglat. The standard R LIMMA bioconductor package was utilized to measure differentially expressed probesets across the entire microarray. To compare GA and Probioglat, comparisons were corrected to compare each treatment relative to mannitol control (i.e., [GA vs mannitol] was compared via LIMMA to [Probioglat vs mannitol]). Probesets were filtered by calls of presence on the chip for the relevant samples in the comparison (to be considered present at a given timepoint, a probeset was required to have on average a call of present or marginal across the relevant samples at that timepoint). Probesets were mapped to genes using the annotation available for the U133 Plus 2.0 chip from Affymetrix. FDR adjusted p values reported for genes represent the lowest FDR adjusted p value for present probesets for that gene.

[4] = 6 hr, FDR p < 1e−5, |FC| >= 1.3
[5] = 6 hr, FDR p < 1e−5, |FC| >= 1.5
[6] = 6 hr, nominal p < 0.05, vs mannitol
[7] = 12 hr, FDR p < 1e−5, |FC| >= 1.3
[8] = 12 hr, FDR p < 1e−5, |FC| >= 1.5
[9] = 24 hr, FDR p < 1e−5, |FC| >= 1.3
[10] = 24 hr, FDR p < 1e−5, |FC| >= 1.5

With glatiramer acetate [Copaxone®] as the substance, how does the “Numbers of relapses reported” value ([1]; 2012, only branded GA marketed, 1618 patients) read?
The value was 8.

And the “Adverse Event Rate (per month)” value ([1]; human, in vivo)?
The value was 10.4 per month.

And the “Numbers of adverse events reported” value ([1]; human, in vivo)?
Its value is 125.

What about the “IL-10 gene expression in all 3 systems” value [2] of the same substance?
Its value is “Upregulated expression”.

And the “Number of genes modulated significantly by GA in all three studies” value [2]?
Its value is 39.

What about the “raw.FC 202434_s_at CYP1B1” value [3] of the same substance?
The value was 2.203.

What about the “raw.FC 202435_s_at CYP1B1” value [3] of the same substance?
The value was 1.96.

And the “raw.FC 202436_s_at CYP1B1” value [3]?
Its value is 2.027.

And the “raw.FC 202437_s_at CYP1B1” value [3]?
The value was 1.809.

And the “IL1RN fold change (FC), all present probesets” value ([3]; 6h, GA vs mannitol, listed as GA)?
Its value is 1.43 and 1.35 and 1.26.

What about the “Number of genes significantly modulated by Copaxone relative to mannitol” value ([3]; 6 hour) of the same substance?
Its value is 6,890.

And the “IL10 fold change (FC)” value ([3]; 6 hour, GA vs mannitol)?
The value was 1.52.

What about the “Number of genes Down-regulated by GA” value ([3]; 6 hr, FDR p < 0.05) of the same substance?
The value was 4066.

What about the “Number of genes Up-regulated by GA” value ([3]; 6 hr, FDR p < 0.05) of the same substance?
The value was 2824.

What about the “Number of genes Down-regulated by GA” value [3, 4] of the same substance?
The value was 508.

And the “Number of genes Up-regulated by GA” value [3, 4]?
Its value is 557.

And the “Number of genes Down-regulated by GA” value [3, 5]?
The value was 119.

What about the “Number of genes Up-regulated by GA” value [3, 5] of the same substance?
The value was 257.

What about the “Number of genes Down-regulated by GA” value [3, 6] of the same substance?
The value was 4909.

And the “Number of genes Up-regulated by GA” value [3, 6]?
The value was 3511.

What about the “Number of genes significantly modulated by Copaxone relative to mannitol” value ([3]; 12 hours) of the same substance?
The value was 3,118.

And the “Number of genes Down-regulated by GA” value ([3]; 12 hr, FDR p < 0.05)?
The value was 1810.

What about the “Number of genes Up-regulated by GA” value ([3]; 12 hr, FDR p < 0.05) of the same substance?
The value was 1308.

And the “Number of genes Down-regulated by GA” value [3, 7]?
Its value is 50.

And the “Number of genes Up-regulated by GA” value [3, 7]?
The value was 210.

What about the “Number of genes Down-regulated by GA” value [3, 8] of the same substance?
The value was 10.

And the “Number of genes Up-regulated by GA” value [3, 8]?
Its value is 68.

And the “Number of genes Down-regulated by GA” value ([3]; 12 hr, nominal p < 0.05)?
The value was 3430.

What about the “Number of genes Up-regulated by GA” value ([3]; 12 hr, nominal p < 0.05) of the same substance?
The value was 2377.

What about the “Number of genes significantly modulated by Copaxone relative to mannitol” value ([3]; 24 hours) of the same substance?
The value was 1,791.

And the “Number of genes Down-regulated by GA” value ([3]; 24 hr, FDR p < 0.05)?
Its value is 1185.

What about the “Number of genes Up-regulated by GA” value ([3]; 24 hr, FDR p < 0.05) of the same substance?
The value was 606.

What about the “Number of genes Down-regulated by GA” value [3, 9] of the same substance?
Its value is 6.

And the “Number of genes Up-regulated by GA” value [3, 9]?
The value was 57.

And the “Number of genes Down-regulated by GA” value [3, 10]?
The value was 0.

And the “Number of genes Up-regulated by GA” value [3, 10]?
The value was 15.

And the “Number of genes Down-regulated by GA” value ([3]; 24 hr, nominal p < 0.05)?
The value was 3724.

What about the “Number of genes Up-regulated by GA” value ([3]; 24 hr, nominal p < 0.05) of the same substance?
Its value is 1410.

And the “CCL2 expression relative to mannitol control” value ([3]; THP-1, 6 hours)?
The value was “decreased”.

What about the “CD14 expression versus mannitol control” value ([3]; THP-1, 6 hours) of the same substance?
The value was “not modulated”.

What about the “CD14 201743_at Copaxone Expression Value Range Maximum” value ([3]; THP-1, all Copaxone samples) of the same substance?
Its value is 9.69.

And the “CD14 201743_at Copaxone Expression Value Range Minimum” value ([3]; THP-1, all Copaxone samples)?
Its value is 9.32.

What about the “CISH 223377_x_at Copaxone Expression Value Range Maximum” value ([3]; THP-1, all Copaxone samples) of the same substance?
The value was 9.11.

What about the “CISH 223377_x_at Copaxone Expression Value Range Minimum” value ([3]; THP-1, all Copaxone samples) of the same substance?
Its value is 8.86.

And the “CISH 223961_s_at Copaxone Expression Value Range Maximum” value ([3]; THP-1, all Copaxone samples)?
Its value is 7.69.

What about the “CISH 223961_s_at Copaxone Expression Value Range Minimum” value ([3]; THP-1, all Copaxone samples) of the same substance?
Its value is 7.24.

What about the “ICAM1 202637_s_at Copaxone Expression Value Range Maximum” value ([3]; THP-1, all Copaxone samples) of the same substance?
The value was 8.06.

And the “ICAM1 202637_s_at Copaxone Expression Value Range Minimum” value ([3]; THP-1, all Copaxone samples)?
Its value is 7.44.

What about the “ICAM1 202638_s_at Copaxone Expression Value Range Maximum” value ([3]; THP-1, all Copaxone samples) of the same substance?
Its value is 7.30.

What about the “ICAM1 202638_s_at Copaxone Expression Value Range Minimum” value ([3]; THP-1, all Copaxone samples) of the same substance?
The value was 6.51.

What about the “MMP9 203936_s_at Copaxone Expression Value Range Maximum” value ([3]; THP-1, all Copaxone samples) of the same substance?
Its value is 9.97.

And the “MMP9 203936_s_at Copaxone Expression Value Range Minimum” value ([3]; THP-1, all Copaxone samples)?
Its value is 9.53.
